The results in this text go back to ChEMBL document CHEMBL5291721, “A preclinical secondary pharmacology resource illuminates target-adverse drug reaction associations of marketed drugs” (Nat Commun, 2023).

In assay [1] the target is T1, Muscarinic acetylcholine receptor M2 (Homo sapiens, UniProt P08172).
T1 sequence (P08172 whole entry): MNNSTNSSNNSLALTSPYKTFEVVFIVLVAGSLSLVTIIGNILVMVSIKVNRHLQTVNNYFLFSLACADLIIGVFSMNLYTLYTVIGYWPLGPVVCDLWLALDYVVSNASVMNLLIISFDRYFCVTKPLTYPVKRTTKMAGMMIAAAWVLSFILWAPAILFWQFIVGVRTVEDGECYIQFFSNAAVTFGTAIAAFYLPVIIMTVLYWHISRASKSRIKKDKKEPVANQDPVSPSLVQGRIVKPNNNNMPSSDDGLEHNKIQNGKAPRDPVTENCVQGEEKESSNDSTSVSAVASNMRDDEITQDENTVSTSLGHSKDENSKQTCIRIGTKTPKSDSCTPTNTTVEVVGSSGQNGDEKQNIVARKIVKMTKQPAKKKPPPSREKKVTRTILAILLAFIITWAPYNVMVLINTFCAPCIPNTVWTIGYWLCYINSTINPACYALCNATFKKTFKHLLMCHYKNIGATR
Type of assay: functional, cell-based.

For assay [2], the target named is Kappa-type opioid receptor (Homo sapiens, UniProt P41145).
The target in assay [3] is T2, Alpha-2A adrenergic receptor (Homo sapiens, UniProt P08913).
T2 sequence (P08913 whole entry): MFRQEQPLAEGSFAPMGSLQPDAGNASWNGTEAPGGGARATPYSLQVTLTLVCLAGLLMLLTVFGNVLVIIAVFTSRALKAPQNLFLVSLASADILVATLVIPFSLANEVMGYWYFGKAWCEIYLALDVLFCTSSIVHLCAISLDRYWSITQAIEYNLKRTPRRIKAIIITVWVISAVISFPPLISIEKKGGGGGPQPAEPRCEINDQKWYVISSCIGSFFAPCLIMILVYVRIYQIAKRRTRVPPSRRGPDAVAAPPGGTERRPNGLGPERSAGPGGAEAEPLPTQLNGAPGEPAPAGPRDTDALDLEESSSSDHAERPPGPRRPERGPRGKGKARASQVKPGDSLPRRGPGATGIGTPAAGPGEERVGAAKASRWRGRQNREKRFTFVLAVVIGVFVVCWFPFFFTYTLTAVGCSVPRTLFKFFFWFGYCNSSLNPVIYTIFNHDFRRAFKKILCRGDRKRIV
Type of assay: functional, cell-based.

The target of a further assay is Histamine H2 receptor (Homo sapiens, UniProt P25021). The class given is functional, cell-based.
In another assay the target is T3, Adenosine receptor A3 (Homo sapiens, UniProt P0DMS8).
T3 sequence (P0DMS8 whole entry): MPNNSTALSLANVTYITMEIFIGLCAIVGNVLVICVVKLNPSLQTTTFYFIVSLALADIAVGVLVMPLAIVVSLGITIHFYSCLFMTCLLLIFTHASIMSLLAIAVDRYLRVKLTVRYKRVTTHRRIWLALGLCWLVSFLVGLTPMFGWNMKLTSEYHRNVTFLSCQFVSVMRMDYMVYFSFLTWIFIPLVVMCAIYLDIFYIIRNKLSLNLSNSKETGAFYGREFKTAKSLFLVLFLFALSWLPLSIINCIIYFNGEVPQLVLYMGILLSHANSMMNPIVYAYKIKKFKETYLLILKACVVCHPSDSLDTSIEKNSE

The target of assay [4] is cGMP-inhibited 3',5'-cyclic phosphodiesterase 3A (Homo sapiens, UniProt Q14432). Type of assay: functional.
In assay [5] the target is Sodium-dependent serotonin transporter (Homo sapiens, UniProt P31645).
Assay [6] addresses Sodium-dependent dopamine transporter (Homo sapiens, UniProt Q01959).
For assay [7], the target named is T4, Alpha-1A adrenergic receptor (Homo sapiens, UniProt P35348).
T4 sequence (P35348 whole entry): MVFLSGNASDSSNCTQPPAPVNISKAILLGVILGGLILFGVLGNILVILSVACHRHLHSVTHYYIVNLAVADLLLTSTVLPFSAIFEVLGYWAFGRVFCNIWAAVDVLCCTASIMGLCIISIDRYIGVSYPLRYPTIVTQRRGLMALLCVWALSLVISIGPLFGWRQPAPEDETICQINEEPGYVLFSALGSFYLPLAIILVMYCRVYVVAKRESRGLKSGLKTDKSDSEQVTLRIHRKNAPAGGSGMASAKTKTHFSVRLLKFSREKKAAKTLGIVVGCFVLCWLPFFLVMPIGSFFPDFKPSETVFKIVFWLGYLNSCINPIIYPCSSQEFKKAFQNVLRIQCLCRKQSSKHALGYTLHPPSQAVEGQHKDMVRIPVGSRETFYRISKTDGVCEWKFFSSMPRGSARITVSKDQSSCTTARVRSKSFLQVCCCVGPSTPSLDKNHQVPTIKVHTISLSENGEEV
The class given is functional, cell-based.

For assay [8], the target named is Gamma-aminobutyric acid receptor subunit alpha-1 (Rattus norvegicus, UniProt P62813). The class given is functional.
The target in assay [9] is Glutamate receptor ionotropic, NMDA 1 (Rattus norvegicus, UniProt P35439).
Another assay concerns the target T5, B2 bradykinin receptor (Homo sapiens, UniProt P30411).
T5 sequence (P30411 whole entry): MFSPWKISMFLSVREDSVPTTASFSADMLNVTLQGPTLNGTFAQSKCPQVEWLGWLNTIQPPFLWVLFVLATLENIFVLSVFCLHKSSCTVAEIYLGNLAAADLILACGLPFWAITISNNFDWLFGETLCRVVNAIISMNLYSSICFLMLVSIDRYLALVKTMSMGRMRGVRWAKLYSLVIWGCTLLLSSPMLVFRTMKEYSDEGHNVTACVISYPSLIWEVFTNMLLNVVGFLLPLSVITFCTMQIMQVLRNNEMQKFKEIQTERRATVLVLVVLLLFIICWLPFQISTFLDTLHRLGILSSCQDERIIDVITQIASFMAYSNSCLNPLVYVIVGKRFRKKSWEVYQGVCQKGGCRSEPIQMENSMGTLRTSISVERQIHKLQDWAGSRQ

In a further assay the target is Histamine H3 receptor (Homo sapiens, UniProt Q9Y5N1).

Structures are written as SMILES.
Also: assay procedure not described here.

Sodium-dependent serotonin transporter, sequence (P31645 whole entry): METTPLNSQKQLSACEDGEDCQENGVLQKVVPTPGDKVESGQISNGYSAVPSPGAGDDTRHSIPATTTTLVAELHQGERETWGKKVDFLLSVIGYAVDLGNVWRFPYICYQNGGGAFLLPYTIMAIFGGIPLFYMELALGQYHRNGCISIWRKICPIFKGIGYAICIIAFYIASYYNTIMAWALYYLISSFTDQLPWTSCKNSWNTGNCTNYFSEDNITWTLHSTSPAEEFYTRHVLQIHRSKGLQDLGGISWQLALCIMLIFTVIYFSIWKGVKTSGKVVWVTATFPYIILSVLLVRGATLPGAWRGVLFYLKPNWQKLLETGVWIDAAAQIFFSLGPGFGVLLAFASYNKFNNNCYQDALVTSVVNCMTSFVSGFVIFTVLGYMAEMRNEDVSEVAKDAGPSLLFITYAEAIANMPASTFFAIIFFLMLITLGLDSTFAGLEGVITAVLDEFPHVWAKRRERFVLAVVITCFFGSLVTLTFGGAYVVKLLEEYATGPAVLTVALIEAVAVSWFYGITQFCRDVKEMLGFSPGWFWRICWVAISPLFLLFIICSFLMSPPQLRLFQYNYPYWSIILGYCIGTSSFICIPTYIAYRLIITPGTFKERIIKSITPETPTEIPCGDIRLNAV
Kappa-type opioid receptor, sequence (P41145 whole entry): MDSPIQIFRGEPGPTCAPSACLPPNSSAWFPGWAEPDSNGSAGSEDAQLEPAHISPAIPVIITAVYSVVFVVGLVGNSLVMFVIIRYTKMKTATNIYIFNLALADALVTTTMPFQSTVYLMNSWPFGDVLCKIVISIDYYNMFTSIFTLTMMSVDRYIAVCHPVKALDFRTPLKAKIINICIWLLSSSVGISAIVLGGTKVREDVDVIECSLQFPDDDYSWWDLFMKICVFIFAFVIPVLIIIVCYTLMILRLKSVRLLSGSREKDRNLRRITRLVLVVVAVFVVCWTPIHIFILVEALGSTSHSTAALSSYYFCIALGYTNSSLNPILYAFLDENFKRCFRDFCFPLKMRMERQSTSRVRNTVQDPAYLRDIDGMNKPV
cGMP-inhibited 3',5'-cyclic phosphodiesterase 3A, sequence (Q14432 whole entry): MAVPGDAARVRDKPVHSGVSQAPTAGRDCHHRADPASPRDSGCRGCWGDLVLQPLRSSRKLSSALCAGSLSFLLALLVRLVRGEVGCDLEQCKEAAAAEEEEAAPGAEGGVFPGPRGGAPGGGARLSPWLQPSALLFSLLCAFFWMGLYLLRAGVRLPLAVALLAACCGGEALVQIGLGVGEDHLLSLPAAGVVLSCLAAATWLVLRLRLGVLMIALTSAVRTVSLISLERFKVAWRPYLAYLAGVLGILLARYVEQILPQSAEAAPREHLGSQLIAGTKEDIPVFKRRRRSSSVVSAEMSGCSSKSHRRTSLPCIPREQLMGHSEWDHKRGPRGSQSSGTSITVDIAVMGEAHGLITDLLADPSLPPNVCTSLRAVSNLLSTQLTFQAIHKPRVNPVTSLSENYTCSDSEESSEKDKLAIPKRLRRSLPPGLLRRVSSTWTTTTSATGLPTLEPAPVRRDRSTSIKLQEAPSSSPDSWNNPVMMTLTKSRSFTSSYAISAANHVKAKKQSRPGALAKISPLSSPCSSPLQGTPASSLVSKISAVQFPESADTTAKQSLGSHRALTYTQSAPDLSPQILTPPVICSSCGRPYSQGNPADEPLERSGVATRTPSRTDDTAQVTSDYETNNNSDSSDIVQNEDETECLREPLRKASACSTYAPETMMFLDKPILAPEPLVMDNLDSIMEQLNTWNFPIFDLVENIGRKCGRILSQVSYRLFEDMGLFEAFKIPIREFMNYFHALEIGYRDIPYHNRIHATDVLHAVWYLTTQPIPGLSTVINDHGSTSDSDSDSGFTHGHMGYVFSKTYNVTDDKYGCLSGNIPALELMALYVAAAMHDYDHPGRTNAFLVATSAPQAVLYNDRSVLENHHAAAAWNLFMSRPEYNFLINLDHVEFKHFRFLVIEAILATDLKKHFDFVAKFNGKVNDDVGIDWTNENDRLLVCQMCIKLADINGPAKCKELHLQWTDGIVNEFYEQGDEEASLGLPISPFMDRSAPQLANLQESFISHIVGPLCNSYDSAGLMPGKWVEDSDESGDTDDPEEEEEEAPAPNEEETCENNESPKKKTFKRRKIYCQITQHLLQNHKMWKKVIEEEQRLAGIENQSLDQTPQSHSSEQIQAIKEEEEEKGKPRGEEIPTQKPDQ
Sodium-dependent dopamine transporter, sequence (Q01959 whole entry): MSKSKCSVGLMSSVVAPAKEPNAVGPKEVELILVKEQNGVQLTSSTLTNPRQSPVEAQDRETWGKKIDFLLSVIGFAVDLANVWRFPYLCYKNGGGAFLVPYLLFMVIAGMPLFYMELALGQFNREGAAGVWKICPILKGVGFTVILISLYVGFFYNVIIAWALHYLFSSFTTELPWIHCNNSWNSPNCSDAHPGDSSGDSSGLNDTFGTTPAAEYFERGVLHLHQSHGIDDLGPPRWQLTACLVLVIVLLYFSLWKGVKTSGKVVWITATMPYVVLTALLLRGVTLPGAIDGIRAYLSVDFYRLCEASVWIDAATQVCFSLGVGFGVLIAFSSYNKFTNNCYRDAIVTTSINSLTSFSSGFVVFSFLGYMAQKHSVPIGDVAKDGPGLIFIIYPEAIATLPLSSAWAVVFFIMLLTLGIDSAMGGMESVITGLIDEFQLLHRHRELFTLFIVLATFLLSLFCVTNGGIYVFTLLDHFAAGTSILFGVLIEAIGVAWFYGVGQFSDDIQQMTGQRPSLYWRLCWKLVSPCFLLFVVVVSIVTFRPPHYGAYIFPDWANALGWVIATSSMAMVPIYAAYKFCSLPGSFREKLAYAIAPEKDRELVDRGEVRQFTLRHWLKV
Histamine H2 receptor, sequence (P25021 whole entry): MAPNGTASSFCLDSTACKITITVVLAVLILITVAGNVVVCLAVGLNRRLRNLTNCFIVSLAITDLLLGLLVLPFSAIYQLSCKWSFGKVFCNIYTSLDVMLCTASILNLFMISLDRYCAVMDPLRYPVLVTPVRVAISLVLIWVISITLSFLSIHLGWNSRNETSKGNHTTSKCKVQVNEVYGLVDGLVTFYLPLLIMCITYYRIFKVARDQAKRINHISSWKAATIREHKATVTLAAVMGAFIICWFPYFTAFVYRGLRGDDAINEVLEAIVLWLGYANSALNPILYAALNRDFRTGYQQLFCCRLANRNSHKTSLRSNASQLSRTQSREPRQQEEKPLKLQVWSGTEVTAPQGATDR
Histamine H3 receptor, sequence (Q9Y5N1 whole entry): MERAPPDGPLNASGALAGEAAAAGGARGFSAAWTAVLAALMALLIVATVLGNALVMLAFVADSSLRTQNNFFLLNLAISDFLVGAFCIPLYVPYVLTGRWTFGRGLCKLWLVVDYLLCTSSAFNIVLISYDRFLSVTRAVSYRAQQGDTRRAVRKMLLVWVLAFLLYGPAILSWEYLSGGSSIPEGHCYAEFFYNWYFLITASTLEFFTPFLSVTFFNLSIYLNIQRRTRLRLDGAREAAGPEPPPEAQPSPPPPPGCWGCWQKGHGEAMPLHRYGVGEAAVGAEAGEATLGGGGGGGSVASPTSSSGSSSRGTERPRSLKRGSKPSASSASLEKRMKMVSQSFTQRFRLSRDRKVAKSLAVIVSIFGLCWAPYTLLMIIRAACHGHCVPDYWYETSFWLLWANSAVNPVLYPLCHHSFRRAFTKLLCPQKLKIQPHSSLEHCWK
Gamma-aminobutyric acid receptor subunit alpha-1, sequence (P62813 whole entry): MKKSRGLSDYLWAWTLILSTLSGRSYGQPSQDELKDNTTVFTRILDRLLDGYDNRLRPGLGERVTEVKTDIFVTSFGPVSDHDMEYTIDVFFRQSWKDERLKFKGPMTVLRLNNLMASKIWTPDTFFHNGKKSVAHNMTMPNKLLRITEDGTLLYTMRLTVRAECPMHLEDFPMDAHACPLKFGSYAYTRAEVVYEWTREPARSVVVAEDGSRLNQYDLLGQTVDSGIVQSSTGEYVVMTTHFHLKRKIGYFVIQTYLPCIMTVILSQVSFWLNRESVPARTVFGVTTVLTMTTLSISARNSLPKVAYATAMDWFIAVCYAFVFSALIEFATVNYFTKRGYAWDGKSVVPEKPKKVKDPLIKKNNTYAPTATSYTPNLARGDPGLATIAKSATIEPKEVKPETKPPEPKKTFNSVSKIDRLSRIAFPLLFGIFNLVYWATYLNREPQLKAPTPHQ

Turning to `CC(=O)Oc1ccccc1C(=O)Nc1ncc([N+](=O)[O-])s1` [NITAZOXANIDE], the AC50 (usually the concentration giving half of the maximal activity seen) in assay [1] is 1400 nM; in assay [2], above 30 µM; in assay [3], above 30 µM; on Histamine H2 receptor, above 30 µM; on Adenosine receptor A3 it was 9.88 µM; in assay [4], above 30 µM. For the same compound, the AC50 in assay [5] is above 30 µM; in assay [6], 7.3 µM; in [7], above 30 µM; in assay [8] it was above 30 µM; in [9], above 30 µM; on B2 bradykinin receptor, 4.9 µM. At Histamine H3 receptor, the AC50 amounted to 10 µM.
